Experiment [1] concerns hair growth on clipped dorsal skin of female CD-1 mice. Kind of experiment: Hair regrowth on clipped dorsal skin of mice after twice-weekly topical treatment. The settings on record: for effect on hair growth (figure legend): 10 nmol in 200 μL acetone applied topically to clipped hair area, mice; for mice demonstrating partial patchy hair regrowth: 10 nmol topically twice weekly from 6th week; for hair growth in pre-existing anagen follicles: 10 week old mice in anagen phase, twice weekly topical. It counts as in vivo, mouse. The protocol: Female CD-1 mice, 4, 5, or 9 weeks of age, were purchased from Charles River Laboratories, Raleigh, N.C. Mice were kept in an animal facility at least 1 week prior to use and were fed rodent chow (Agway Food, Granville Milling and Co., Creedmoor, N.C.) and water ad libitum. The mice were kept on corn cob bedding and placed on a 12 hour light/dark cycle. Female CD-1 mice were clipped on the dorsal region (approximately 4×2.5 cm area) with electric clippers. The mice were then treated twice weekly on the clipped dorsal surface with either (a) 10 nmol 17-β-estradiol in 200 μl acetone or (b) acetone alone. For the studies with the estrogen receptor antagonist, ICI 182,780 was dissolved in acetone and 200 μl was topically applied twice weekly. Mice were treated with the estrogen receptor antagonist ICI 182,780 as provided in Example 1. Twice-weekly treatment of clipped dorsal skin was begun when the mice were 6 weeks of age, with either (a) 10 nmol ICI 182,780 in acetone or (b) acetone alone. […] In order to determine if 17-β-estradiol could influence hair growth, six week old CD-1 female mice were clipped on the dorsal surface with electric clippers and then treated twice weekly from the 6th week of age to the 16th week of age with topical applications of either (a) 10 nmol 17-β-estradiol or (b) acetone vehicle alone. […] In order to determine if 17-β-estradiol could block hair growth in pre-existing anagen follicles, 10 week old mice in the anagen phase of the hair cycle were treated twice weekly with 17-β-estradiol applied topically to clipped dorsal skin.

Experiment [2] concerns hair follicles of female CD-1 mice. Kind of experiment: Histological analysis of skin to determine the phase of the hair cycle. It is filed as in vivo, mouse. The protocol: Female CD-1 mice, 4, 5, or 9 weeks of age, were purchased from Charles River Laboratories, Raleigh, N.C. Mice were kept in an animal facility at least 1 week prior to use and were fed rodent chow (Agway Food, Granville Milling and Co., Creedmoor, N.C.) and water ad libitum. The mice were kept on corn cob bedding and placed on a 12 hour light/dark cycle. Female CD-1 mice were clipped on the dorsal region (approximately 4×2.5 cm area) with electric clippers. The mice were then treated twice weekly on the clipped dorsal surface with either (a) 10 nmol 17-β-estradiol in 200 μl acetone or (b) acetone alone. For the studies with the estrogen receptor antagonist, ICI 182,780 was dissolved in acetone and 200 μl was topically applied twice weekly. […] To determine the effect of 17-β-estradiol on the hair follicle cycle, mice were treated with 17-β-estradiol or acetone alone twice weekly from the 4th week of age to the 15th week of age. Every week, histological analysis of the skin from 3 mice from each group was conducted to determine the phase of the hair cycle. Representative skin histology sections from acetone- and 17-β-estradiol-treated mice at 7, 9, and 11 weeks of age are shown in FIGS. 6A-6F. As expected, at 7 weeks of age all follicles were in telogen in both the 17-β-estradiol and the acetone-treated mice.

SMILES strings stand for the structures.

With `C[C@]12CC[C@@H]3c4ccc(O)cc4CC[C@H]3[C@@H]1CC[C@@H]2O` [17-β-estradiol], the “effect on hair growth (figure legend)” value in experiment [1] is recorded as “blocks hair regrowth”. The “effect on dorsal hair regrowth” value in experiment [1] (10 nmol topically twice weekly from 6th to 16th week of age) is reported as “potent inhibitory effect”. In experiment [1] (10 nmol topically twice weekly from 6th to 16th week of age, by 16 weeks of age, 100% of acetone mice regrown by 13 weeks), the full hair regrowth result was “did not demonstrate any full hair regrowth”. Moreover, the “partial patchy hair regrowth, share of total clipped area” value in experiment [1] (10 nmol topically twice weekly from 6th to 16th week of age, some of the treated mice) is listed as “less than 10%”. The entries for the “mice demonstrating partial patchy hair regrowth” value in experiment [1] (at 12 weeks of age) and in experiment [1] (by 15 weeks) were 20% and 40%, respectively. Also, the “hair growth in pre-existing anagen follicles” value in experiment [1] (treatment continued for 10 weeks) is recorded as “no hair growth was apparent”; in experiment [1] (within two weeks, all acetone mice developed full coat), “no longer growing hair”. For the same molecule, the hair follicle phase result in experiment [2] (17-β-estradiol twice weekly from 4th week of age, 15 weeks of age, termination of experiment) is “still arrested in telogen”; in experiment [2] (17-β-estradiol twice weekly from 4th week of age, at 7 weeks of age, acetone mice also in telogen), “telogen”; in experiment [2] (17-β-estradiol twice weekly from 4th week of age, by 9 weeks of age, acetone mice entered anagen) it was “remained in telogen”; in experiment [2] (17-β-estradiol twice weekly from 4th week of age, by 11 weeks of age, acetone mice in mid to late anagen) it was “remained in telogen”.
Consider `C[C@]12CC[C@@H]3c4ccc(O)cc4C[C@@H](CCCCCCCCC[S+]([O-])CCCC(F)(F)C(F)(F)F)[C@H]3[C@@H]1CC[C@@H]2O` (stereo partly drawn) [ICI 182,780, 7α-[9-(4,4,5,5,5,-pentafluoropentylsulfinyl)nonyl]estra-1,3,5(10)-triene-3,17β-diol], for which, in experiment [1], the “effect on hair growth (figure legend)” value is reported as “causes hair growth during the second telogen phase”. The “mice demonstrating full hair regrowth” value in experiment [1] (10 nmol in acetone topically twice weekly from 6 weeks of age, by 9 weeks of age, no hair growth in acetone-treated mice) is 60%. The “mice that developed a full coat of hair” value in experiment [1] (10 nmol in acetone topically twice weekly from 6 weeks of age, by 10 weeks of age, 40% of acetone-treated mice) is recorded as “all”. In addition, the hair follicle phase entry in experiment [2] (10 nmol ICI 182,780 twice weekly from 6 weeks, at 7 weeks of age, acetone mice in second telogen) was “early to mid anagen”; in experiment [2] (10 nmol ICI 182,780 twice weekly from 6 weeks, at eleven weeks of age, control mice in mid to late anagen) it was “entered telogen”; in experiment [2] (10 nmol ICI 182,780 twice weekly from 6 weeks, by eight weeks of age, acetone mice in telogen), “mid to late anagen”. Moreover, the “effect on duration of anagen” value in experiment [2] (conclusion from histology at eleven weeks of age) was “does not prolong anagen”.

The values above are taken from patent US6555532B1, “Method of treating alopecia” (North Carolina State University, priority 1996, dated 2003).
